Measurements published in patent US8871227B2, “Process and formulation containing epothilones and analogs thereof” (Bristol-Myers Squibb Company, priority 2003, dated 2014).

Assays:
Assay type in all cases: physicochemical
[1] = Degradation during dissolution and lyophilization; settings: tertiary butanol/water 1:1, lyophilized at −30° C. about 100 hours, dried at 25° C. about 35 hours, light protected
Procedure: [1S-[1R*,3R*(E),7R*,10S*,11R*,12R*,16S*]]-7,11-Dihydroxy-8,8,10,12,16-pentamethyl-3-[1-methyl-2-(2-methyl-4-thiazolyl)ethenyl]-4-aza-17-oxabicyclo[14.0]heptadecane-5,9-dione, 4.04 g, was wetted/partially dissolved with 500 mL of a 4:1 mixture of tertiary butanol and Water for Injection USP which had been pre-cooled to 5° C. Once the drug powder had become completely wetted, dissolution was completed by the addition of […] Water for Injection, thereby making the final solution a 1:1 mixture. The dissolution was carried out under protection from light.
The solution formed above was promptly lyophilized in a Virtis GENESIS lyophilizer at −30° C. under light protected conditions over a period of about 100 hours. The resultant lyophilized product (lyophile) was then further dried at 25° C. under high vacuum for about 35 hours. […] The lyophile was packaged under sterile conditions into 15 mL vials, each containing 20 mg of drug and standard excess to allow for vial/needle/syringe loss.

pH of maximum stability = experiment: pH of maximum stability
Source text: The term, “pH of maximum stability,” or “maximum stability pH” means the pH at which a compound (or mixture of compounds) is least likely to degrade, or at which the compound (or mixtures of compounds) will degrade most slowly. Each compound or mixture of compounds will have a pH of maximum stability. However, the pH of maximum stability also may encompass a range of pH's. […] In this case, the pH of maximum stability is 7.1±1.
For example, in the embodiment involving use of the epothilone analog of formula II, the pH of maximum stability is about 7.0. A preferred dose of this epothilone analog when diluted in the infusion fluid is approximately in the range of about 0.05 to about 1.0 mg/mL, more preferably in the range of about 0.1 to about 0.8 mg/mL, and most preferably in the range of about 0.2 to about 0.6 mg/mL. The inventors herein have determined that for this epothilone analog and preferred dose, an advantageous buffer is sodium lactate, and a preferred concentration of this buffer in the formulation for administration is in the range of about 3 to about 30 mg/mL, more preferably in the range of about 10 to about 20 mg/mL, even more preferably at a concentration of about 15 mg/mL. […]

[2] = Stability of aqueous solution: time for 5% drug loss (t95); settings: 25°
Procedure: The compounds represented by formulae I and II present challenges from the viewpoint of pharmaceutical compounding for administration to patients for a number of reasons. […] Of particular concern with the present invention, compounds of formulae I and II can degrade when exposed to low pH, e.g., certain compounds of formula I presumably are susceptible to acids catalyzed hydrolysis. For example, the time for 5% drug loss (t95) at 25° for an aqueous solution of compound II is approximately 2 h at pH 7, but less than 0.2 h at pH 2.5.

[3] = Infusion stability: loss of potency over six hour hold time after dilution in infusion fluid; settings: for loss of potency (degradation of active compound) / loss of potency (degradation in active compound): 0.2 mg/mL; for loss of potency (degradation of active compound): with buffer and base; for loss of potency (degradation in active compound): without buffer and base
Procedure: To illustrate the surprising advantages of the invention, a formulation including the compound of formula II was diluted in a 0.9% Sodium Chloride Injection infusion fluid to a concentration of 0.2 mg/mL, without buffer and base. […] As a further illustration, a formulation including the compound of formula II was diluted in a 5% dextrose injection fluid to a concentration of 0.2 mg/mL, without buffer and base.

## C/C(=C\c1csc(C)n1)C1CC2O[C@]2(C)CCC[C@H](C)[C@H](O)[C@@H](C)C(=O)C(C)(C)[C@@H](O)CC(=O)N1 (relative stereo) [II, [1S-[1R*,3R*(E),7R*,10S*,11R*,12R*,16S*]]7,11-Dihydroxy-8,8,10,12,16-pentamethyl-3-[1-methyl-2-(2-methyl-4-thiazolyl)ethenyl]-4-aza-7oxabicyclo[14.1.0]heptadecane-5,9-dione]
[1]
  degradation of the drug during dissolution, lyophilization and drying: No detectable degradation
pH of maximum stability
  pH of maximum stability: about 7.0
[2]; pH 2.5
  time for 5% drug loss (t95): less than 0.2 h
[2]; pH 7
  time for 5% drug loss (t95): approximately 2 h
[3]; 0.9% Sodium Chloride Injection
  loss of potency (degradation of active compound): about 3.6%
  loss of potency (degradation in active compound): about 6%
[3]; 0.9% Sodium Chloride Injection, with vs without buffer and base
  enhancement in stability: approximately 40%
[3]; 5% dextrose injection fluid
  loss of potency (degradation of active compound): about 4%
  loss of potency (degradation in active compound): about 13%
[3]; 5% dextrose injection fluid, with vs without buffer and base
  enhancement of stability: greater than 65%
